These results are taken from patent US8603737B2, “Methods for identifying HCV protease inhibitors” (priority 2008, dated 2013).

Assay type in all cases: biochemical
For test [1], the target named is T1, A156S mutant of the HCV NS3/4A 1b protease enzyme (Hepatitis C virus genotype 1b, UniProt P26663, A1182S).
T1 construct: 10× stocks of NS3/4A protease enzyme from Bioenza; purchased Bioenza (Mountain View, Calif.)
In words: HCV protease FRET assay, A156S mutant. As to conditions: read-out: Inhibition, HCV A156S (IC50). On the procedure: (§1) HCV Protease FRET Assay for Mutated NS3/4A 1b Enzymes
(§2) The protocol is a modified FRET-based assay (v—02) from In Vitro Resistance Studies of HCV Serine Protease Inhibitors, 2004, JBC, vol. 279, No. 17, pp 17508-17514. Inherent potency of compounds was assessed against A156S, A156T, D168A, and D168V mutants of the HCV NS3/4A 1b protease enzyme as follows: […]
(§3) 10× stocks of NS3/4A protease enzyme from Bioenza (Mountain View, Calif.) and 1.13×5-FAM/QXL™520 FRET peptide substrate from Anaspec (San Jose, Calif.) were prepared in 50 mM HEPES, pH 7.8, 100 mM NaCl, 5 mM DTT and 20% glycerol. 5 μL of each enzyme were pre-incubated in a Corning (#3573) 384-well, black, non-treated microtiter plate (Corning, N.Y.) for 30 min at 25° C. with a 0.5 μL volume of 50% DMSO and serially diluted compounds prepared in 50% DMSO. Protease reactions were started with the addition of 45 μL of the FRET substrate and monitored for 120 minutes at λex487/λem514 through Quad^4 monochromoters in a Synergy^4 plate reader from BioTek (Winooski, Vt.). At the conclusion of each assay, progress curves from each well were examined for linear reaction kinetics and fit statistics (R^2, absolute sum of squares). Initial velocity (0 minutes to 30+ minutes) from each reaction was determined from the slope of a plot of relative fluorescence units vs time (minutes) and then plotted against inhibitor concentration to estimate IC50 from log[Inhibitor] vs Response, Variable Slope model in GraphPad Prism from GraphPad Software (San Diego, Calif.). […]
(§4) The compound numbers correspond to the compound numbers in Table 3. Compounds having an activity designated as “A” provided an IC50≦10 nM; compounds having an activity designated as “B” provided an IC50>10 nM and ≦100 nM; compounds having an activity designated as “C” provided an IC50>100 nM and ≦1000 nM; and compounds having an activity designated as “D” provided an IC50>1000 nM and <10,000 nM.

Test [2] deals with T2, wild type HCV NS3/4A 1b protease enzyme (Hepatitis C virus genotype 1b, UniProt P26663).
T2 construct: 10× stocks of NS3/4A protease enzyme from Bioenza; purchased Bioenza (Mountain View, Calif.)
The test can be described thus: HCV protease FRET assay, wild type NS3/4A 1b enzyme. An excerpt: Method B: HCV Protease FRET Assay for Wild Type and Mutated NS3/4A 1b Enzymes (IC50)
A quantitative, fluorescence resonance energy transfer (FRET)-based methodology was employed to identify HCV NS3/4A protease inhibitors. The assay employed a synthetic FRET peptide, derived from the HCV NS5A/5B cleavage site, with the HCV protease to evaluate the activity of compounds against the protease by monitoring the cleavage activity of the complex. A synthetic peptide which encompasses the NS5A-5B junction (NH2-[…]-COOH) (SEQ ID NO: 78) was labeled with Dabcyl and Edans at N- and C-termini, respectively (Invitrogen, Carlsbad, Calif.). Fluorescence measurement was used to estimate the IC50 value of the test compound. […] Upon cleavage of the FRET peptide by HCV NS3/4A proteinase complex (100 ng/mL), the fluorescence is recovered and can be continuously monitored at excitation/emission=340/490 nm.
Assay buffer: 2% CHAPS, 50 mM Tris pH 7.5, 50% glycerol, 2 uM M-2235 (Bachem) substrate. In a 50 μl reaction, add 49 μl assay buffer, 1 μl (1 U) HCV serine protease (Bioenza). Incubate 20 minutes at room temperature. The plate was read at either 350/460 nm (excitation/emission) on a fluorescent micro-plate reader or monitored at one-minute intervals to achieve the kinetic curve.
HCV Protease FRET Assay for WT and Mutated NS3/4A 1b Enzymes (IC50 —APP)
The following protocol was used to generate “apparent” IC50 (IC50—APP)) values as depicted in Table 3, below. Without wishing to be bound by any particular theory, it is believed that IC50—APP, contrasted with IC50 values, may provide a more useful indication of time-dependent inhibition, and are thus more representative of binding affinity. […] Protease reactions were immediately started after enzyme addition with the addition of 45 μL of the FRET substrate and monitored for 60-90 minutes at λex485/λem520 in a Synergy^4 plate reader from BioTek (Winooski, Vt.). […]

The target of test [3] is T3, D168A mutant of the HCV NS3/4A 1b protease enzyme (Hepatitis C virus genotype 1b, UniProt P26663, D1194A).
T3 construct: 10× stocks of NS3/4A protease enzyme from Bioenza; purchased Bioenza (Mountain View, Calif.)
In words: HCV protease FRET assay, D168A mutant. Particulars: read-out: Inhibition, HCV D168A (IC50). On the procedure:
as §1, §2, §3, §4

A value given as a limit tells only on which side of the number the result lay.

As usually defined, the IC50 is the concentration needed to halve the response being measured. For `C=C[C@@H]1C[C@]1(NC(=O)[C@@H]1C[C@@H](Oc2cc(-c3ccccc3)nc3cc(OC)ccc23)CN1C(=O)C(NC(=O)OC(C)(C)C)[C@@H](C)OC(=O)/C=C/C)C(=O)NS(=O)(=O)C1CC1` (stereo partly drawn) [Compound 3], the values for the IC50 in test [1], in test [2] and in test [3] were less than 10 nM, less than 10 nM and 100 to 1000 nM, respectively.

In the case of `C=CC(=O)N(C)C[C@H](NC(=O)OC(C)(C)C)C(=O)N1C[C@H](OC(=O)N2Cc3cccc(F)c3C2)C[C@H]1C(=O)N[C@]1(C(=O)NS(=O)(=O)C2CC2)C[C@H]1C=C` [Compound 4], the IC50 in test [1] was less than 10 nM; in test [2], less than 10 nM; in test [3] it was 10 to 100 nM.

As for `CC(C)(C)OC(=O)NC1CN(C(=O)CCl)CCC/C=C\[C@@H]2C[C@@]2(C(=O)NS(=O)(=O)C2CC2)NC(=O)[C@@H]2C[C@@H](OC(=O)N3Cc4cccc(F)c4C3)CN2C1=O` (stereo partly drawn) [Compound 8], the figures for the IC50 in test [1], in test [2] and in test [3] were less than 10 nM, less than 10 nM and 10 to 100 nM, respectively.
